In patent US11993599B2, “Therapeutic compounds” (Genentech, Inc., priority 2021, dated 2024):

Legend:
BRG1 = target: T1, BRG1 (Homo sapiens, UniProt P51532); assay: Immunofluorescence assay for BRG1 degradation in SW1573 cells; type: cell-based; settings: 20 hours incubation; for DC50: immunofluorescence mean nuclear signal, read-out: BRG1 IF Degradation IC50; for Dmax: SW1573, 20 h, normalized to a known degrader control, read-out: BRG1 IF Degradation Sinf (%)
T1 construct: either BRM primary antibody (Cell signaling Cat #11966) or BRG primary antibody (Abcam, ab 110641); endogenous in cells; host or cells: SW1573
Method in brief: (§1)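 Cells seeded one day before dosing, exposed to compounds for 20 hours, then fixed, permeabilized, blocked and stained overnight at 4 °C with anti-BRM or anti-BRG1 antibody. Nuclear fluorescence intensity per cell, normalized to a degrader control, gave concentration-response curves fitted with a floating maximum.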

BRM = BRM (Homo sapiens, UniProt P51531); assay: Immunofluorescence assay for BRM degradation in SW1573 cells; type: cell-based; set-up: treated overnight at 4° C. with either BRM primary antibody (Cell signaling Cat #11966) or BRG primary antibody; endogenous in cells; host or cells: SW1573; settings: 20 hours incubation; for DC50: immunofluorescence mean nuclear signal, read-out: BRM IF Degradation IC50; for BRM IF Degradation Sinf (%): normalized to a known degrader control
Method in brief: as §1

Chain of BRM (P51531 whole entry): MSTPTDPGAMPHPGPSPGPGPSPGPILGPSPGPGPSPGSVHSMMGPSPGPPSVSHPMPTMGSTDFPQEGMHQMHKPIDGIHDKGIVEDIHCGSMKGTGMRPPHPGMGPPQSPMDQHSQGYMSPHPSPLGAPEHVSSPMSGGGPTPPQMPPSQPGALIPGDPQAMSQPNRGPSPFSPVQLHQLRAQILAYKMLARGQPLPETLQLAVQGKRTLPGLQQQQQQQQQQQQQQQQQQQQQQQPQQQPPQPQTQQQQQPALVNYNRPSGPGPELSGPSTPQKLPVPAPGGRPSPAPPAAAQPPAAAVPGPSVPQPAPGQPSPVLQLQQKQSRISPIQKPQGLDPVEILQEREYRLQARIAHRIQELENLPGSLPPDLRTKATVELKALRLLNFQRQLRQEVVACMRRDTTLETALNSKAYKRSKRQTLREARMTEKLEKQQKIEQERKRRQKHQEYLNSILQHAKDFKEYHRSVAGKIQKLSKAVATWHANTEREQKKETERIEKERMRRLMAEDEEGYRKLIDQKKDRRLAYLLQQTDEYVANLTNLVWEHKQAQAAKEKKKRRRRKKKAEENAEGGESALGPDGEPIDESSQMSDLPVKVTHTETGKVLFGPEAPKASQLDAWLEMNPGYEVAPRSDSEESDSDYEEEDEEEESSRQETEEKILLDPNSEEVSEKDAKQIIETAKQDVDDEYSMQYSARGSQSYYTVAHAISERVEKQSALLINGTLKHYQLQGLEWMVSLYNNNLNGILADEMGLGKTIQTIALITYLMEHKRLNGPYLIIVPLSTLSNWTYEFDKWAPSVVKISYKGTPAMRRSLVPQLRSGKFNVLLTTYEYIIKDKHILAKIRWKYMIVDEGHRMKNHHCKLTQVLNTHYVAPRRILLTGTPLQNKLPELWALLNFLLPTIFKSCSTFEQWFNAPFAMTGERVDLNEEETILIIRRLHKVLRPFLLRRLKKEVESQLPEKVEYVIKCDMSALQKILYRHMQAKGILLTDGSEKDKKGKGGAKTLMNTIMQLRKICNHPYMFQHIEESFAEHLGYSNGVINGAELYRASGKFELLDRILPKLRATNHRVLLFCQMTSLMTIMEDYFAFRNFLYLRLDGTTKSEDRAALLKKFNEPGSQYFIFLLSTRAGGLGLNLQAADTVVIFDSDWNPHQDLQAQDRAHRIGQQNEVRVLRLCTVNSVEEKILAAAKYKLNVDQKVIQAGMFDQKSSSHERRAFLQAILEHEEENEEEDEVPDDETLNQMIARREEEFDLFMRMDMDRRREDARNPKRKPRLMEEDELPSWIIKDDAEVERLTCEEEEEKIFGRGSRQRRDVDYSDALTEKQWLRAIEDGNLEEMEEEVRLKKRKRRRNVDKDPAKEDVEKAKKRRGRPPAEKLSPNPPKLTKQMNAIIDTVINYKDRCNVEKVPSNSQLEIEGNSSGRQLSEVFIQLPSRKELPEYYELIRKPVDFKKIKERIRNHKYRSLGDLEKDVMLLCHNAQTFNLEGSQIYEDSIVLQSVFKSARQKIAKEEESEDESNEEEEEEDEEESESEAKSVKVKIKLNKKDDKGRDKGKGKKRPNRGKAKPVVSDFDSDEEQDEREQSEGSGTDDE
T1 sequence (P51532 whole entry): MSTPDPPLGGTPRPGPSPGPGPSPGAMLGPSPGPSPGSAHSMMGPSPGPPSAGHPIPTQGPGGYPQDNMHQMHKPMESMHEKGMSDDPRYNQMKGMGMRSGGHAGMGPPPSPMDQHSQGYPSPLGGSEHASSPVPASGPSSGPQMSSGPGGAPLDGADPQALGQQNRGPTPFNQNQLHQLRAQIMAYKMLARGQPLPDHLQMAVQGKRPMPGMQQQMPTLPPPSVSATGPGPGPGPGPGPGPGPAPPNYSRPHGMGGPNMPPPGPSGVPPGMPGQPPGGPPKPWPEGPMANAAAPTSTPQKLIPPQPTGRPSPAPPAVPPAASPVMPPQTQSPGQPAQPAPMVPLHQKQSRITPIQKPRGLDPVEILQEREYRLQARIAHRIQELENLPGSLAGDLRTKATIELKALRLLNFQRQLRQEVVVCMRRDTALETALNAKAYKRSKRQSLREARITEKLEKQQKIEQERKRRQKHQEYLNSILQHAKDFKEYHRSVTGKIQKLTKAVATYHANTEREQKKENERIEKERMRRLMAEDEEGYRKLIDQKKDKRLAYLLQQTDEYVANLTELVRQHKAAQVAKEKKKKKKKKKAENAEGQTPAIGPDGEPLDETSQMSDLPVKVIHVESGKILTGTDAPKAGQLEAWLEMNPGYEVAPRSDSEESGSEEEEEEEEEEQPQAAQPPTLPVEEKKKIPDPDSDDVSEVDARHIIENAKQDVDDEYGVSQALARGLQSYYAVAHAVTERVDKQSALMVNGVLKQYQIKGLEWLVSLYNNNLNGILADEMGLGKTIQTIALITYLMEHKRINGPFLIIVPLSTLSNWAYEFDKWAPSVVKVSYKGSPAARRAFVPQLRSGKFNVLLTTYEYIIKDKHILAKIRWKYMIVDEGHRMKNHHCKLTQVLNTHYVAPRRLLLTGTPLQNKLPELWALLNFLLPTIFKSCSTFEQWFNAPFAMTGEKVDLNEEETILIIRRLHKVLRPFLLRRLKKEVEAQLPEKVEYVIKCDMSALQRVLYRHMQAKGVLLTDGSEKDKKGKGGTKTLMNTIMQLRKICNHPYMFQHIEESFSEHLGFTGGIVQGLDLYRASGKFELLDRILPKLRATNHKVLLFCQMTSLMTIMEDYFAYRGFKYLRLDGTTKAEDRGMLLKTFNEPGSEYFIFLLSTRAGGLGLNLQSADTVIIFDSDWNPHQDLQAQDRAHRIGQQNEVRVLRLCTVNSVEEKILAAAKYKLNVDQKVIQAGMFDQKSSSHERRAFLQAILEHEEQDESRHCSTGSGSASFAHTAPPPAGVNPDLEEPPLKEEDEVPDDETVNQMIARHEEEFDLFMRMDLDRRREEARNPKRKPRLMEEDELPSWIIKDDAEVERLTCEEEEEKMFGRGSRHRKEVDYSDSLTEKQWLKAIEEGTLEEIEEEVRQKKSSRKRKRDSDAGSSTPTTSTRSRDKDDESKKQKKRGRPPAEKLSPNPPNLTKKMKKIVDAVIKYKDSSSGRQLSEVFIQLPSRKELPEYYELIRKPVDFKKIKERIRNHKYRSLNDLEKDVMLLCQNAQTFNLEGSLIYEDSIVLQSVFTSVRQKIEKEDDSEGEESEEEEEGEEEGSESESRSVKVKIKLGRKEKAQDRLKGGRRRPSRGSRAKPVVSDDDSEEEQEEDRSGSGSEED

Row | Compound | DC50 (BRG1) [nM] | Dmax (BRG1) [%] | DC50 (BRM) [nM] | BRM IF Degradation Sinf (%) (BRM)
1 | CN(CC#Cc1cc(N2C3CCC2CN(c2cc(-c4ccccc4O)nnc2N)C3)ccn1)C1CCS(=O)(=O)C1 (centres unmarked) [Compound 51, 2-[6-amino-5-[8-[2-[3-[(1,1-dioxothiolan-3-yl)-methyl-amino]prop-1-ynyl]-4-pyridyl]-3,8-diazabicyclo[3.2.1]octan-3-yl]pyridazin-3-yl]phenol] | > 100 | 30 to 70 | > 100 | E (E indicates −30%-−70%)
2 | Nc1nnc(-c2ccccc2O)cc1N1CC2CCC(C1)N2c1ccnc(C#CCN2CCC3CCCC32)c1 (centres unmarked) [Compound 94, 2-[5-[8-[2-[3-(3,3a,4,5,6,6a-hexahydro-2H-cyelopenta[b]pyrrol-1-yl)prop-1-ynyl]-4-pyridyl]-3,8-diazabicyclo[3.2.1]octan-3-yl]-6-amino-pyridazin-3-yl]phenol] | < 10 | 30 to 70 | < 10 | E (E indicates −30%-−70%)
3 | N#CC1CCCN(CC#Cc2cc(N3C4CCC3CN(c3cc(-c5ccccc5O)nnc3N)C4)ccn2)C1 (centres unmarked) [Compound 120, 1-[3-[4-[3-[3-amino-6-(2-hydroxyphenyl)pyridazin-4-yl]-3,8-diazabicyclo[3.2.1]octan-8-yl]-2-pyridyl]prop-2-ynyl]piperidine-3-carbonitrile] | 10 to 100 | 30 to 70 | 10 to 100 | E (E indicates −30%-−70%)
4 | Nc1nnc(-c2ccccc2O)cc1N1CC2CCC(C1)N2c1ccnc(C#CCN2CCCCCC2)c1 [Compound 58, 2-(6-amino-5-(8-(2-(3-(azepan-1-yl)prop-1-yn-1-yl)pyridin-4-yl)-3,8-diazabicyclo[3.2.1]octan-3-yl)pyridazin-3-yl)phenol] | < 10 | 30 to 70 | < 10 | F (F indicates −71%-−120%)
5 | COC(=O)C1CN(CC#Cc2cc(N3C4CCC3CN(c3cc(-c5ccccc5O)nnc3N)C4)ccn2)C1 [Compound 225] | < 10 | 0 to 30 | 10 to 100 | E (E indicates −30%-−70%)
6 | Nc1nnc(-c2ccccc2O)cc1N1CC2CCC(C1)N2c1ccnc(C#CCN2CCc3nccn3CC2)c1 [Compound 203, 2-[6-amino-5-[8-[2-[3-(5,6,8,9-tetrahydroimidazo[l,2-d][1,4]diazepin-7-yl)prop-1-ynyl]-4-pyridyl]-3,8-diazabicyclo[3.2.1]octan-3-yl]pyridazin-3-yl]phenol] | > 100 |  | 10 to 100 | E (E indicates −30%-−70%)
7 | Nc1nnc(-c2ccccc2O)cc1N1CC2CCC(C1)N2c1ccnc(C#CCN2CCCOCC2)c1 [Compound 70, 2-[6-amino-5-[8-[2-[3-(l,4-oxazepan-4-yl)prop-1-ynyl]-4-pyridyl]-3,8-diazabicyclo[3.2.1]octan-3-yl]pyridazin-3-yl]phenol] | < 10 | 30 to 70 | < 10 | E (E indicates −30%-−70%)
8 | COC1CCCN(CC#Cc2cc(N3C4CCC3CN(c3cc(-c5ccccc5O)nnc3N)C4)ccn2)C1 (centres unmarked) [Compound 37, 2-[6-amino-5-[8-[2-[3-(3-methoxy-1-piperidyl)prop-1-ynyl]-4-pyridyl]-3,8-diazabicyclo[3.2.1]octan-3-yl]pyridazin-3-yl]phenol] | < 10 | 30 to 70 | 10 to 100 | E (E indicates −30%-−70%)
9 | COC1C2CCC1N(CC#Cc1cc(N3C4CCC3CN(c3cc(-c5ccccc5O)nnc3N)C4)ccn1)C2 (centres unmarked) [Compound 82, 2-[6-amino-5-[8-[2-[3-(7-methoxy-2-azabicyclo[2.2.1]heptan-2-yl)prop-1-ynyl]-4-pyridyl]-3,8-diazabicyclo[3.2.1]octan-3-yl]pyridazin-3-yl]phenol] | < 10 | 30 to 70 | < 10 | E (E indicates −30%-−70%)
10 | CC1CCN(CC#Cc2cc(N3C4CCC3CN(c3cc(-c5ccccc5O)nnc3N)C4)ccn2)CC1 [Compound 138, 2-[6-amino-5-[8-[2-[3-(4-methyl-1-piperidyl)prop-1-ynyl]-4-pyridyl]-3,8-diazabicyclo[3.2.1]octan-3-yl]pyridazin-3-yl]phenol] | < 10 | 30 to 70 | 10 to 100 | E (E indicates −30%-−70%)
11 | CC1CCN1CC#Cc1cc(N2C3CCC2CN(c2cc(-c4ccccc4O)nnc2N)C3)ccn1 (centres unmarked) [Compound 184, 2-[6-amino-5-[8-[2-[3-(2-methylazetidin-1-yl)prop-1-ynyl]-4-pyridyl]-3,8-diazabicyclo[3.2.1]octan-3-yl]pyridazin-3-yl]phenol] | < 10 | 30 to 70 | < 10 | E (E indicates −30%-−70%)
12 | Nc1nnc(-c2ccccc2O)cc1N1CC2CCC(C1)N2c1ccnc(C#CCN2CCC3CNCC32)c1 (centres unmarked) [Compound 146, 2-[5-[8-[2-[3-(3,3a,4,5,6,6a-hexahydro-2H-pyrrolo[3,4-b]pyrrol-1-yl)prop-1-ynyl]-4-pyridyl]-3,8-diazabicyclo[3.2.1]octan-3-yl]-6-amino-pyridazin-3-yl]phenol] | > 100 | 30 to 70 | > 100 | E (E indicates −30%-−70%)
13 | Nc1nnc(-c2ccccc2O)cc1N1CC2CCC(C1)N2c1ccnc(C#CCN2CC3CC(C2)C3O)c1 (centres unmarked) [Compound 126, 3-[3-[4-[3-[3-amino-6-(2-hydroxyphenyl)pyridazin-4-yl]-3,8-diazabicyclo[3.2.1]octan-8-yl]-2-pyridyl]prop-2-ynyl]-3-azabicyclo[3.1.1]heptan-6-ol] | < 10 | 0 to 30 | < 10 | E (E indicates −30%-−70%)
14 | Nc1nnc(-c2ccccc2O)cc1N1CC2CCC(C1)N2c1ccnc(C#CCN2CC3CCC2C3)c1 (centres unmarked) [Compound 141, 2-[6-amino-5-[8-[2-[3-(2-azabicyclo[2.2.1]heptan-2-yl)prop-1-ynyl]-4-pyridyl]-3,8-diazabicyclo[3.2.1]octan-3-yl]pyridazin-3-yl]phenol] | < 10 | 30 to 70 | < 10 | E (E indicates −30%-−70%)
15 | Nc1nnc(-c2ccccc2O)cc1N1CC2CCC(C1)N2c1cc(C#CCN2CCCCCC2)ncn1 [Compound 247, 2-(6-amino-5-(8-(6-(3-(azepan-1-yl)prop-1-yn-1-yl)pyrimidin-4-yl)-3,8-diazabicyclo[3.2.1]octan-3-yl)pyridazin-3-yl)phenol] | < 10 | 71 to 120 | < 10 | F (F indicates −71%-−120%)
16 | Nc1nnc(-c2ccccc2O)cc1N1CC2CCC(C1)N2c1ccnc(C#CCN2CC3CC3C2)c1 (centres unmarked) [Compound 68, 2-[6-amino-5-[8-[2-[3-(3-azabicyclo[3.1.0]hexan-3-yl)prop-1-ynyl]-4-pyridyl]-3,8-diazabicyclo[3.2.1]octan-3-yl]pyridazin-3-yl]phenol;] | < 10 | 30 to 70 | < 10 | F (F indicates −71%-−120%)
17 | Oc1ccccc1-c1cc2c(nn1)NC[C@@H]1CN(c3ccnc(C#CCN4CCCCCC4)c3)CCN21 (single isomer, unassigned) [Compound 253] | < 10 | 71 to 120 | < 10 | F (F indicates −71%-−120%)
18 | N#Cc1ccc(C2CN(CC#Cc3cc(N4C5CCC4CN(c4cc(-c6ccccc6O)nnc4N)C5)ccn3)C2)cc1 [Compound 237, 4-[1-[3-[4-[3-[3-amino-6-(2-hydroxyphenyl)pyridazin-4-yl]-3,8-diazabicyclo[3.2.1]octan-8-yl]-2-pyridyl]prop-2-ynyl]azetidin-3-yl]benzonitrile] | 10 to 100 | 30 to 70 | 10 to 100 | E (E indicates −30%-−70%)
19 | Nc1nnc(-c2ccccc2O)cc1N1CC2CCC(C1)N2c1ccnc(C#CCN2CC3CCCCC3C2)c1 (centres unmarked) [Compound 39, 2-[5-[8-[2-[3-(1,3,3a,4,5,6,7,7a-octahydroisoindol-2-yl)prop-1-ynyl]-4-pyridyl]-3,8-diazabicyclo[3.2.1]octan-3-yl]-6-amino-pyridazin-3-yl]phenol] | < 10 | 30 to 70 | < 10 | F (F indicates −71%-−120%)
20 | Oc1ccccc1-c1cc2c(nn1)NC[C@H]1CN(c3ccnc(C#CCN4CCCCCC4)c3)CCN21 (single isomer, unassigned) [Compound 252] | < 10 | 71 to 120 | < 10 | F (F indicates −71%-−120%)
21 | COC(=O)C1CCN1CC#Cc1cc(N2C3CCC2CN(c2cc(-c4ccccc4O)nnc2N)C3)ccn1 (centres unmarked) [Compound 176, methyl 1-[3-[4-[3-[3-amino-6-(2-hydroxyphenyl)pyridazin-4-yl]-3,8-diazabicyclo[3.2.1]octan-8-yl]-2-pyridyl]prop-2-ynyl]azetidine-2-carboxylate] | > 100 |  | 10 to 100 | E (E indicates −30%-−70%)
22 | CC1CCCN(CC#Cc2cc(N3C4CCC3CN(c3cc(-c5ccccc5O)nnc3N)C4)ccn2)C1 (centres unmarked) [Compound 61, 2-[6-amino-5-[8-[2-[3-(3-methyl-1-piperidyl)prop-1-ynyl]-4-pyridyl]-3,8-diazabicyclo[3.2.1]octan-3-yl]pyridazin-3-yl]phenol] | < 10 | 30 to 70 | < 10 | E (E indicates −30%-−70%)
